Laboratory results as given in PMC12136037, “Type II kinase inhibitors that target Parkinson’s disease–associated LRRK2” (Science Advances, 2025).
Where “and” joins values, the source holds several entries; their conditions need not be identical. Identical values can stand only once.

Experiments:
[1] = biological target: T1, LRRK2^RCKW (Homo sapiens, UniProt Q5S007); test: Biochemical LRRK2 activity assay (PhosphoSense, AssayQuant SOX peptide AQT0615); details: for normalized response (LRRK2 activity): normalized to 0% (no kinase) and 100% (no inhibitor) control, two singlicate columns per compound; for IC50: LRRK2^RCKW kinase activity, in vitro
T1 construct: LRRK2 R1327 to E2527; His6-Z-tag (TEV cleavable) (N, cleaved yes); host or cells: Sf9 insect cells (baculovirus)
T1 sequence (Q5S007 1327-2527): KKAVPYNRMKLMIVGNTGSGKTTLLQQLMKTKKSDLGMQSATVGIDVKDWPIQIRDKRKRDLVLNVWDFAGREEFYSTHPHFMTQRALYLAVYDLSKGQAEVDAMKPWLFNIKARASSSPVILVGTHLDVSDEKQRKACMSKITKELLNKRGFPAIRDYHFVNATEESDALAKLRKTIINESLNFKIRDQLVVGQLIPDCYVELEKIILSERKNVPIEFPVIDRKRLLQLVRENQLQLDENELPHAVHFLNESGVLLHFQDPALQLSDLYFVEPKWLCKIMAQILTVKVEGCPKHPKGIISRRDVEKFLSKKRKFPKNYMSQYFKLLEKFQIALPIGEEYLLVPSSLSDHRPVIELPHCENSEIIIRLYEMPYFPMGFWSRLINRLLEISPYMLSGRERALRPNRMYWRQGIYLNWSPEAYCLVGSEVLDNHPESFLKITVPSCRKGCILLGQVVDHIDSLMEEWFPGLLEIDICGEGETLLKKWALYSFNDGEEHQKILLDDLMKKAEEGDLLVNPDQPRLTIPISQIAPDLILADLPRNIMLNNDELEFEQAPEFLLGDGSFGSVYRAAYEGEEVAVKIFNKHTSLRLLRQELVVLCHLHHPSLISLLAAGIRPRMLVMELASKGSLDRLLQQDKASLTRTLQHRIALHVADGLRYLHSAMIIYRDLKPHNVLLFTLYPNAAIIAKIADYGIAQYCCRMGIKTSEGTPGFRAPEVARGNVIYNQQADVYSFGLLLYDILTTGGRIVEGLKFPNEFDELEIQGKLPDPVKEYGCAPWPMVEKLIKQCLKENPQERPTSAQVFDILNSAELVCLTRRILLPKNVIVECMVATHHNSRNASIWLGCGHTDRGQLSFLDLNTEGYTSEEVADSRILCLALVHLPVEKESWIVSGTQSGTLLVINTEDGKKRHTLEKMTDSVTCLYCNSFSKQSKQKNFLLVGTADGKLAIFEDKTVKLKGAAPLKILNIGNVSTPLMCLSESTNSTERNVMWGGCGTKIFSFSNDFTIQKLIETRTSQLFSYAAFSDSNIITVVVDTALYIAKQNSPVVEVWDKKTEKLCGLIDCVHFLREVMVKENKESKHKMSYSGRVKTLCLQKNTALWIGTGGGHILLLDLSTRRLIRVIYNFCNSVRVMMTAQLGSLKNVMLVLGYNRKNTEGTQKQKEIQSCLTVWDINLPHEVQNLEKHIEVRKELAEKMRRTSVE
Method in brief: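 Controls lacked protein and compound (0%) or compound only (100%). IC50 derived by nonlinear regression of normalized response versus log[inhibitor].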

[2] = biological target: T2, LRRK2^KW (Homo sapiens, UniProt Q5S007); test: DSF thermal stabilization of LRRK2^KW; format: binding; details: DSF, LRRK2^KW, 10 μM inhibitor
T2 construct: LRRK2 R1847 to E2527; His6-Z-tag (TEV cleavable) (N, cleaved yes); host or cells: Sf9 insect cells (baculovirus)
T2 sequence (Q5S007 1847-2527): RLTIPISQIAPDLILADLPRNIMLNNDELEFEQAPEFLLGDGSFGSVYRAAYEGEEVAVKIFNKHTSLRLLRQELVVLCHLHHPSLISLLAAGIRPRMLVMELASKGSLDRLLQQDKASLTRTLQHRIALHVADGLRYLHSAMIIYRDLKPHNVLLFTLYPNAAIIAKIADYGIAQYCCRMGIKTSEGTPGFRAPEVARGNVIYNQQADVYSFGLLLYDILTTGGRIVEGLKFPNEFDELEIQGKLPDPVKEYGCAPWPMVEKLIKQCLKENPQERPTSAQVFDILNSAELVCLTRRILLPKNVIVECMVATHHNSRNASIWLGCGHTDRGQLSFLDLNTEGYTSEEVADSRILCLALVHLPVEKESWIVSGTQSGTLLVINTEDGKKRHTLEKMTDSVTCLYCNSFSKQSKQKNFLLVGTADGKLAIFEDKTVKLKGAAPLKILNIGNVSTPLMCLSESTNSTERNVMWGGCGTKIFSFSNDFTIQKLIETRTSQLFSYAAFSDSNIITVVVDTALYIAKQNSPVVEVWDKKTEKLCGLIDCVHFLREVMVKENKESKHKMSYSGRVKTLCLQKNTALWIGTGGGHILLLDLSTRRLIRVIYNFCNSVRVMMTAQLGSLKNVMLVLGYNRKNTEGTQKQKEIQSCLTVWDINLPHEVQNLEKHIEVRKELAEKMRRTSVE
Method in brief: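 DSF on 4 μM LRRK2^KW in 20 mM Hepes pH 7.4, 150 mM NaCl, 0.5 mM TCEP, 0.5% glycerol, 20 μM GDP, 2.5 mM MgCl2 with SYPRO Orange; inhibitor at 10 μM. Tm was taken as the minimum of the first derivative of fluorescence versus temperature, relative to control.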

Compound	normalized response (LRRK2 activity) ([1]; log[inhibitor(mol)] -5.12494)	normalized response (LRRK2 activity) ([1]; log[inhibitor(mol)] -5.60206)	normalized response (LRRK2 activity) ([1]; log[inhibitor(mol)] -6.30103)	normalized response (LRRK2 activity) ([1]; log[inhibitor(mol)] -6.90309)	normalized response (LRRK2 activity) ([1]; log[inhibitor(mol)] -7.30103)	normalized response (LRRK2 activity) ([1]; log[inhibitor(mol)] -7.60206)	normalized response (LRRK2 activity) ([1]; log[inhibitor(mol)] -8.09691)	normalized response (LRRK2 activity) ([1]; log[inhibitor(mol)] -8.61979)	normalized response (LRRK2 activity) ([1]; log[inhibitor(mol)] -9.09691)	normalized response (LRRK2 activity) ([1]; log[inhibitor(mol)] -9.39794)	∆Tm (K) [2]	IC50 [1]	normalized response (LRRK2 activity) ([1]; log[inhibitor(mol)] -4.82391)
CNC(=O)c1cc(Oc2ccc(NC(=O)Nc3cc(C(C)(C)C)nn3-c3ccc4ncccc4c3)c(F)c2)ccn1 [Rebastinib, reference compound]	-10.5496% and -14.6792%	-7.259% and -5.877%	2.212% and 3.3144%	28.2838% and 28.5032%	54.9753% and 51.2954%	71.3236% and 68.1209%	89.2569% and 91.5273%	98.1961% and 113.387%	109.62% and 109.044%	108.15% and 116.184%	18.5 K and 18.5 ± 0.7 K		
O=C(Nc1cccc(-c2c[nH]c3ncnc(N4CCOCC4)c23)c1)C1(C(=O)Nc2cc(Br)c(F)cc2F)CC1 [Compound 25]	6.886% and 2.089%	16.9372% and 25.3493%	61.5503% and 64.2768%	87.889% and 62.9679%	95.1314% and 96.4468%	95.9663% and 100.454%	95.3684% and 96.0989%	98.0471% and 98.2841%	97.884% and 98.6428%	99.7517% and 70.9452%	9.0 K	818 ± 56 nM	4.179% and 4.042%
CC(C)(C)c1cc(NC(=O)Nc2cccc(-c3c[nH]c4ncnc(N5CCOCC5)c34)c2)n(-c2ccc3ncccc3c2)n1 [Compound 28]	-4.603% and -7.6443%	-5.899% and -7.93%	-0.5957% and -1.998%	20.6807% and 19.3416%	54.9087%	83.9541% and 76.0062%	102.755% and 100.691%	109.195% and 109.069%	110.935% and 112.883%	72.3369% and 118.777%	20.0 K	59.7 ± 2.9 nM	3.992% and -4.217%
